One block for each compound: values may come before it. The source made the active and inactive calls.
What was measured:
[1] = target: 72 kDa type IV collagenase (Homo sapiens, UniProt P08253); assay: Dose Response validation of uHTS RPN11 inhibitor hits using a MMP-2 Fluorescence assay.; type: functional
[2] = target: Phospholipase A2 (Homo sapiens, UniProt P04054); type: functional;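 note: confirmatory dose-response counterscreen on phospholipase A2, testing hits that came from an ultra-high-throughput screen for ATG4B inhibitors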
[3] = target: 26S proteasome non-ATPase regulatory subunit 14 (Homo sapiens, UniProt O00487); assay: inhibition of proteasome subunit RPN11 – biochemical, fluorescence polarization, uHTS hits, confirmation (AID 602368); type: functional
[4] = target: T1, Cysteine protease ATG4B (Homo sapiens, UniProt Q9Y4P1); type: functional;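 note: Fluorescence-based dose-response confirmation assay measuring inhibition of ATG4B activity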
T1 sequence (Q9Y4P1 whole entry): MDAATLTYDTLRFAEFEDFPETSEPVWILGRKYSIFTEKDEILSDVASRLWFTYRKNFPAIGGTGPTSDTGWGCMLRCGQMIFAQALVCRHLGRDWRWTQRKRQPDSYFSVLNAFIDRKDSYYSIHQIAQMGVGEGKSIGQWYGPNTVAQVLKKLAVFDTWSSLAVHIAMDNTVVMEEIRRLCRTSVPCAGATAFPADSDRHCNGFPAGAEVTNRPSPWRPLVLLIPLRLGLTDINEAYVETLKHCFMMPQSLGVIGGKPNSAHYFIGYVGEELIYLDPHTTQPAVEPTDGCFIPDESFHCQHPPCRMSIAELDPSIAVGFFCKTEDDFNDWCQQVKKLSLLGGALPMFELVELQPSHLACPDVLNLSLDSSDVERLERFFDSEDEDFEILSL

[5] = target: T2, RNA-binding protein pos-1 (Caenorhabditis elegans, UniProt G5EF15); assay: disruptors of C. elegans POS-1 RNA interaction – biochemical, fluorescence polarization, dose response (AID 1964);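 note: purified POS-1 fused to maltose binding protein made in E. coli; potency of compounds blocking POS-1 binding to fluorescent RNA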
T2 sequence (G5EF15 whole entry): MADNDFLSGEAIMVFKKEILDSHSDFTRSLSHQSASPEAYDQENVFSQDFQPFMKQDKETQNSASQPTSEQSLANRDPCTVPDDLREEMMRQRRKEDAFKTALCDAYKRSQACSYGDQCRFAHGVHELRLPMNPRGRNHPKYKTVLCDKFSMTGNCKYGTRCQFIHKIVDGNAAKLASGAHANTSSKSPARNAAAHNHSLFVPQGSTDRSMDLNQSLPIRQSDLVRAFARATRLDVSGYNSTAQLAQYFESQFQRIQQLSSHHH

[6] = target: T3, Small ubiquitin-related modifier 1 (Homo sapiens, UniProt P63165); assay: SUMO1 protein interaction blockers, potency – biochemical, fluorescence polarization, uHTS hits, dose response (AID 624382); type: functional; conditions: read-out: IC50_Mean
[7] = target: T4, ORF 73 (Human herpesvirus 8, UniProt O40947); assay: KSHV LANA DNA-binding disruption – biochemical, fluorescence polarization, cherry-picked samples, dose response (AID 504725); parameters: species or system Human gammaherpesvirus 8;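 note: fluorescence polarization of a labeled DNA duplex reporting LANA DNA binding; potency is for inhibitors that block LANA binding to the DNA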
T4 sequence (O40947 whole entry): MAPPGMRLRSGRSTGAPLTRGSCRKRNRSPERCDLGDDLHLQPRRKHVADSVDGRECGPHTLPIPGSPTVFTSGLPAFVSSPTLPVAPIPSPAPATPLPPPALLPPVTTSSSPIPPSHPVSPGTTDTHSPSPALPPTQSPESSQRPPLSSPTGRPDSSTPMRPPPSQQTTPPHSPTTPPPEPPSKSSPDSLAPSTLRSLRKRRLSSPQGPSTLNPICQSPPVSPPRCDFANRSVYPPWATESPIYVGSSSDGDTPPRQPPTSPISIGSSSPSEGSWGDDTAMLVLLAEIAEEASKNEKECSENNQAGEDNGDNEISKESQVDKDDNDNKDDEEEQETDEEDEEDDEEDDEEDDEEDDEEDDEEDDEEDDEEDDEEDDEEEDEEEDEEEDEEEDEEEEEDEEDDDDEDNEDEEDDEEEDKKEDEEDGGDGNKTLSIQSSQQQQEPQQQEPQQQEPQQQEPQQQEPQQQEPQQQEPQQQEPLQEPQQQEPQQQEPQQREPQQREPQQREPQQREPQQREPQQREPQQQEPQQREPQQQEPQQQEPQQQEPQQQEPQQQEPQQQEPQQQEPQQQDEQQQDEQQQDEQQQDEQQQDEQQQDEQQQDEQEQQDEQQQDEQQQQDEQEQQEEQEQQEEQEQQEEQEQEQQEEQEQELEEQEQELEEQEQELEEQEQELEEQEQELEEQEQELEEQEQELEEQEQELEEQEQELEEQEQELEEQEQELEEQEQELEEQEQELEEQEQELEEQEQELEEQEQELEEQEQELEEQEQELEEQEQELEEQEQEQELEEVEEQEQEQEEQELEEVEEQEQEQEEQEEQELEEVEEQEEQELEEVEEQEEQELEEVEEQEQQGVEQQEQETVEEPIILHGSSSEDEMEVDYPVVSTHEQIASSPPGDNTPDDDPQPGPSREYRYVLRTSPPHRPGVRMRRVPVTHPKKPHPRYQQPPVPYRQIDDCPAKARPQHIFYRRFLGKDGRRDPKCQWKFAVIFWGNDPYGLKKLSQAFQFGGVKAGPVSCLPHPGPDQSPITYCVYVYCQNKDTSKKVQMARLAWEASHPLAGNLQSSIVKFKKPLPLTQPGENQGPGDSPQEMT

[8] = target: Prothrombin (Bos taurus, UniProt P00735); assay: thrombin protease inhibitors – biochemical, fluorescence polarization, uHTS hits, dose response (AID 602369); type: functional
[9] = target: T3, Small ubiquitin-related modifier 1; assay: SUMO1 protein-protein binding blockers, potency – biochemical, FRET, dose response (AID 624383); type: functional; conditions: read-out: IC50_Mean
[10] = target: T5, Zinc finger protein mex-5 (Caenorhabditis elegans, UniProt Q9XUB2); assay: potency of MEX-5 RNA-binding blockers – biochemical, C. elegans, fluorescence polarization, dose response (AID 1960)
T5 sequence (Q9XUB2 whole entry): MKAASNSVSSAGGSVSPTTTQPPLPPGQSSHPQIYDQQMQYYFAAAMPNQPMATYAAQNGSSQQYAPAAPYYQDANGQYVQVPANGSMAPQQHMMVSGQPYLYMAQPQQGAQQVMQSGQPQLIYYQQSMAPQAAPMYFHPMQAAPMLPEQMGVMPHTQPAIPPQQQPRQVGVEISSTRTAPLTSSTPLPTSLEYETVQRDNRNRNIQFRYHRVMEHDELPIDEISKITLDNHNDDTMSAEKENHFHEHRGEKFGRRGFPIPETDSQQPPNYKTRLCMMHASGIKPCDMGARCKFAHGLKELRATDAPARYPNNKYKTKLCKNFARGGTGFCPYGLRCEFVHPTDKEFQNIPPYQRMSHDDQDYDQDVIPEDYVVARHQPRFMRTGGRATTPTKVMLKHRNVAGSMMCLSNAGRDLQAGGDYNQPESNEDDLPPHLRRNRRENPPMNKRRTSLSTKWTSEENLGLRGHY

[11] = target: Genome polyprotein (dengue virus type 2, UniProt P29990); assay: flavivirus cap methylation enzyme inhibition – biochemical, confirmation dose response, primary screen (AID 588689); type: functional
[12] = target: Large T antigen (Simian virus 40, UniProt P03070); type: functional, Betapolyomavirus macacae;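 note: Confirmatory-stage PubChem screen for compounds that inhibit SV40 T antigen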
[13] = target: T6, Orexin/Hypocretin receptor type 1 (Homo sapiens, UniProt O43613); assay: (§1) Fluorescence-based cell-based high throughput dose response assay for antagonists of the orexin 1 receptor (OX1R; HCRTR1). [Related pubchem assays (depositor defined):AID434989, AID435008, AID463079, AID485270, AID492963, AID492964, AID492965, AID493232, AID504717, AID504718]; type: functional
T6 sequence (O43613 whole entry): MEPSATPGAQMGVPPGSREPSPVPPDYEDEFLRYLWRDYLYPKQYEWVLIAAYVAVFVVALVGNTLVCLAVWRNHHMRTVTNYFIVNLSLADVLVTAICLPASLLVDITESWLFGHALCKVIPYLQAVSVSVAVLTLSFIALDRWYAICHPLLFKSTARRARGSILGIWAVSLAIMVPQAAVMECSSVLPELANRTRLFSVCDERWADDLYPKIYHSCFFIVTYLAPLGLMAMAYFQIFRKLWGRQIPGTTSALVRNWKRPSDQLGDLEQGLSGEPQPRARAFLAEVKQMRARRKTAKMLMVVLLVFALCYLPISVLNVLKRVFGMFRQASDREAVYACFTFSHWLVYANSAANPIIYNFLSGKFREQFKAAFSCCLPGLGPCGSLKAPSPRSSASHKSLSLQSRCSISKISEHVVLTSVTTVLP

[14] = target: T6, Orexin/Hypocretin receptor type 1; assay: as §1, with “Homogeneous Time Resolved Fluorescence (HTRF)-based” for “Fluorescence-based”; type: functional
[15] = (§2) Counterscreen for antagonists of the orexin 1 receptor (OX1R; HCRTR1): Fluorescence-based cell-based high throughput dose response assay to identify antagonists of the parental CHO cell line. [Related pubchem assays (depositor defined):AID434989, AID435008, AID463079, AID485270, AID492963, AID492964, AID492965, AID493232, AID504699, AID504701]; type: functional
[16] = target: T7, Orexin receptor type 2 (Homo sapiens, UniProt O43614); assay: Counterscreen assay for antagonists of the orexin 1 receptor (OX1R; HCRTR1): Homogeneous Time Resolved Fluorescence (HTRF)-based cell-based dose response assay for antagonists of the orexin 2 receptor (OX2R; HCRTR2), run by assay provider.; type: functional
T7 sequence (O43614 whole entry): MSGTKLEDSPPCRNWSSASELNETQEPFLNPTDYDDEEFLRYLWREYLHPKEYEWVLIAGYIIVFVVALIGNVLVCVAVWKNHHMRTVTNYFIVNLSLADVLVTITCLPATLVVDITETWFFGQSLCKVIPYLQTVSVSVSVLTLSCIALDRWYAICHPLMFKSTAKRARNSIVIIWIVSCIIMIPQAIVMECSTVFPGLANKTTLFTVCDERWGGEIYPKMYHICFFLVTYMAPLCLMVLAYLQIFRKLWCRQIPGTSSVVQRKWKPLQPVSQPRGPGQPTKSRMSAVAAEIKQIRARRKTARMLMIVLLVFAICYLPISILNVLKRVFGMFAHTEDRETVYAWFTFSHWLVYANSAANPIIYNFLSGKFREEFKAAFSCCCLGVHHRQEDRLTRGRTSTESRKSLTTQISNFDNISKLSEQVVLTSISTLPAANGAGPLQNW

[17] = target: T7, Orexin receptor type 2; assay: Counterscreen assay for antagonists of the orexin 1 receptor (OX1R; HCRTR1): Fluorescence-based cell-based dose response assay for antagonists of the orexin 2 receptor (OX2R; HCRTR2), run by assay provider.; type: functional
[18] = test system: CHO-K1; assay: as §2, with “Homogeneous time resolved fluorescence (HTRF)-based” for “Fluorescence-based”, “cell-based” for “cell-based high throughput”, “CHO-K1” for “CHO”; type: functional; conditions: Cricetulus griseus;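 note: potency for inhibition of ATP-stimulated IP1 production as antagonists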
[19] = target: DNA (cytosine-5)-methyltransferase 1 (Homo sapiens, UniProt P26358); assay: inhibition of DNA methylation by DNMT1 – biochemical, fluorescent molecular beacon, confirmation (AID 602386); type: functional
[20] = cAMP pathway inhibition in counterscreen cell line – TR-FRET cAMP detection, counter-screen for MC4R biased antagonist project, dose response (AID 602305); type: functional, cell-based;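 note: U2OS cells stimulated with forskolin near its EC80 as the cAMP inducer; potency is for inhibition of forskolin-stimulated cAMP signaling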
[21] = target: Melanocortin receptor 4 (Homo sapiens, UniProt P32245); assay: inhibitors of MC4R cAMP signaling – cell-based, TR-FRET, biased antagonists, dose response (AID 602298); type: functional;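 note: antagonist potency against agonist-stimulated cAMP production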
[22] = target: Tyrosine-protein kinase JAK3 (Homo sapiens, UniProt P52333); type: functional
[23] = target: Aurora kinase A (Homo sapiens, UniProt O14965); type: functional;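 note: value from the Navigating the Kinome kinase panel profiling, panel entry STK6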
[24] = target: ALK tyrosine kinase receptor (Homo sapiens, UniProt Q9UM73); type: functional;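 note: ALK tested as one member of a kinase panel screen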
[25] = target: Mitochondrial peptide methionine sulfoxide reductase (Bos taurus, UniProt P54149); type: functional;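 note: absorbance read-out, biochemical high-throughput dose-response screen for MsrA inhibitors, confirmatory; recombinant bovine MsrA coupled to E. coli TrxB with NADPH and selenocystamine; potency is for inhibitors of MsrA activity on DMSO substrate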
[26] = target: G protein-coupled receptor kinase 5 (Homo sapiens, UniProt P34947); assay: Navigating the Kinome. Panel member name: GPRK5; type: functional
[27] = target: Dual specificity protein kinase CLK2 (Homo sapiens, UniProt P49760); type: functional

T3 sequence (P63165 whole entry): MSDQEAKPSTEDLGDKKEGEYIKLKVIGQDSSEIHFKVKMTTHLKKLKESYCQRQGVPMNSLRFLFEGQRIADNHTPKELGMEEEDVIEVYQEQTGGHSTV
Chain of Large T antigen (P03070 whole entry): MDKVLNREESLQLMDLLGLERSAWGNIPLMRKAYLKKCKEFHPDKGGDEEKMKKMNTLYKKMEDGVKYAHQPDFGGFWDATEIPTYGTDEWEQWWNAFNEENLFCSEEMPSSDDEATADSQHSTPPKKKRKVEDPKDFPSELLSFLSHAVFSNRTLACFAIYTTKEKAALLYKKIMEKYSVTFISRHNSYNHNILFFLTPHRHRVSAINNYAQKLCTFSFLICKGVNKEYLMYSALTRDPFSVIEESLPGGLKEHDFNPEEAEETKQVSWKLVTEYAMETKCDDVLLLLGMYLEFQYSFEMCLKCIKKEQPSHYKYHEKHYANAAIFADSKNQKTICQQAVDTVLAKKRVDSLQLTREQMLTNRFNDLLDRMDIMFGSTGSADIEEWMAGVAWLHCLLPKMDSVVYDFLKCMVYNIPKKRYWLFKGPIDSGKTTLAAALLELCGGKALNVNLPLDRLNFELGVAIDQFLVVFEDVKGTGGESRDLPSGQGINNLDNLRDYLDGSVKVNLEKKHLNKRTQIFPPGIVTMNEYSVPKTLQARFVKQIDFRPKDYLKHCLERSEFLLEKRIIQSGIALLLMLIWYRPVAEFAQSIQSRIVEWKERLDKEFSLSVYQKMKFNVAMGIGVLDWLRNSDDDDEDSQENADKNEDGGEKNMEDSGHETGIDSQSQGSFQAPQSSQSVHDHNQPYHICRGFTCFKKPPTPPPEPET
Chain of Phospholipase A2 (P04054 whole entry): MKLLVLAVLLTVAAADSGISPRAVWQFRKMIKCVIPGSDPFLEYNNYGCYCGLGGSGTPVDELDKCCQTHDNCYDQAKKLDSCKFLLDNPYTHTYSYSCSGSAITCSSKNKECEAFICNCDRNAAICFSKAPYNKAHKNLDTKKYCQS
Chain of ALK tyrosine kinase receptor (Q9UM73 whole entry): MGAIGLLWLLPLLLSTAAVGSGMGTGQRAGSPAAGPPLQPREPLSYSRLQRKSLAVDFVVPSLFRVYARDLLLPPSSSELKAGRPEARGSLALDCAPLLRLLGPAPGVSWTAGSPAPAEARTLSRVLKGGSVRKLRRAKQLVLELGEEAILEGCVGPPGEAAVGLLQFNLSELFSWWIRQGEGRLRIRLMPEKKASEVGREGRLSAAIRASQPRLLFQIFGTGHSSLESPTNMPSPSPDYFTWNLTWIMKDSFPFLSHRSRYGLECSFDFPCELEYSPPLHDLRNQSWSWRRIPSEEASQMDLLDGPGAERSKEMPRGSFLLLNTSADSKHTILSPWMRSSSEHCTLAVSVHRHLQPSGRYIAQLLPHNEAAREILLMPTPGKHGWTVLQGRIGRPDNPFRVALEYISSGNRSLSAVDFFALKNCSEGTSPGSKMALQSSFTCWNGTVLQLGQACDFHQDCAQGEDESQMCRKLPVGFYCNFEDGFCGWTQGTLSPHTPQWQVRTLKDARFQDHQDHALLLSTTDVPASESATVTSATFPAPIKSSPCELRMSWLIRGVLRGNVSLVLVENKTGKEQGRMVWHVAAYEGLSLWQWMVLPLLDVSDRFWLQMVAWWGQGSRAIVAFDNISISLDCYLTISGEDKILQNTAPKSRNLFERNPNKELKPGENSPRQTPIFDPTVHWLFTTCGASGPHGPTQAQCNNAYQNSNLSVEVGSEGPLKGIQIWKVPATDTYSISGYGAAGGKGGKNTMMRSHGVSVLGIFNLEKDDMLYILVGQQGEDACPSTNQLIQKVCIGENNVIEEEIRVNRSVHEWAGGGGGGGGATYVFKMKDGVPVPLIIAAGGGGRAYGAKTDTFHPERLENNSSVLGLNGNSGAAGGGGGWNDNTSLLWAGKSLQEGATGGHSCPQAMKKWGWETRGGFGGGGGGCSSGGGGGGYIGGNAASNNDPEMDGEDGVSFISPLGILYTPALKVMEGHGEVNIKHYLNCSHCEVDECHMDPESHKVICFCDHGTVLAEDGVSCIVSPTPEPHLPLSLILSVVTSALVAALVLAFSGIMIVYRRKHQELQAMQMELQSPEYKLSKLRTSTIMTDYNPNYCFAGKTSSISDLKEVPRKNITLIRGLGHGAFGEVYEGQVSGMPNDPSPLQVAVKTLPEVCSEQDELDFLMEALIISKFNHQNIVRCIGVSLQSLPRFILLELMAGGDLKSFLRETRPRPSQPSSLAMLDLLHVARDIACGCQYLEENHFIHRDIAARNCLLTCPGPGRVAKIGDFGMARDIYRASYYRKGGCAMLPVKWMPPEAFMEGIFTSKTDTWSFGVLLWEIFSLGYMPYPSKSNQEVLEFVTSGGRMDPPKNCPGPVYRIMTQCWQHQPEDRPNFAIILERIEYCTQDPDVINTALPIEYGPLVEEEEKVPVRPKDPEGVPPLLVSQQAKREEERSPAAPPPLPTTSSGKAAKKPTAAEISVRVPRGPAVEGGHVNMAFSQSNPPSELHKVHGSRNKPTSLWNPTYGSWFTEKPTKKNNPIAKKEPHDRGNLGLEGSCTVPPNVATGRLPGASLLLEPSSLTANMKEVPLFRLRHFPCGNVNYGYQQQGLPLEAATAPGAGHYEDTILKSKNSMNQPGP
Chain of DNA (cytosine-5)-methyltransferase 1 (P26358 whole entry): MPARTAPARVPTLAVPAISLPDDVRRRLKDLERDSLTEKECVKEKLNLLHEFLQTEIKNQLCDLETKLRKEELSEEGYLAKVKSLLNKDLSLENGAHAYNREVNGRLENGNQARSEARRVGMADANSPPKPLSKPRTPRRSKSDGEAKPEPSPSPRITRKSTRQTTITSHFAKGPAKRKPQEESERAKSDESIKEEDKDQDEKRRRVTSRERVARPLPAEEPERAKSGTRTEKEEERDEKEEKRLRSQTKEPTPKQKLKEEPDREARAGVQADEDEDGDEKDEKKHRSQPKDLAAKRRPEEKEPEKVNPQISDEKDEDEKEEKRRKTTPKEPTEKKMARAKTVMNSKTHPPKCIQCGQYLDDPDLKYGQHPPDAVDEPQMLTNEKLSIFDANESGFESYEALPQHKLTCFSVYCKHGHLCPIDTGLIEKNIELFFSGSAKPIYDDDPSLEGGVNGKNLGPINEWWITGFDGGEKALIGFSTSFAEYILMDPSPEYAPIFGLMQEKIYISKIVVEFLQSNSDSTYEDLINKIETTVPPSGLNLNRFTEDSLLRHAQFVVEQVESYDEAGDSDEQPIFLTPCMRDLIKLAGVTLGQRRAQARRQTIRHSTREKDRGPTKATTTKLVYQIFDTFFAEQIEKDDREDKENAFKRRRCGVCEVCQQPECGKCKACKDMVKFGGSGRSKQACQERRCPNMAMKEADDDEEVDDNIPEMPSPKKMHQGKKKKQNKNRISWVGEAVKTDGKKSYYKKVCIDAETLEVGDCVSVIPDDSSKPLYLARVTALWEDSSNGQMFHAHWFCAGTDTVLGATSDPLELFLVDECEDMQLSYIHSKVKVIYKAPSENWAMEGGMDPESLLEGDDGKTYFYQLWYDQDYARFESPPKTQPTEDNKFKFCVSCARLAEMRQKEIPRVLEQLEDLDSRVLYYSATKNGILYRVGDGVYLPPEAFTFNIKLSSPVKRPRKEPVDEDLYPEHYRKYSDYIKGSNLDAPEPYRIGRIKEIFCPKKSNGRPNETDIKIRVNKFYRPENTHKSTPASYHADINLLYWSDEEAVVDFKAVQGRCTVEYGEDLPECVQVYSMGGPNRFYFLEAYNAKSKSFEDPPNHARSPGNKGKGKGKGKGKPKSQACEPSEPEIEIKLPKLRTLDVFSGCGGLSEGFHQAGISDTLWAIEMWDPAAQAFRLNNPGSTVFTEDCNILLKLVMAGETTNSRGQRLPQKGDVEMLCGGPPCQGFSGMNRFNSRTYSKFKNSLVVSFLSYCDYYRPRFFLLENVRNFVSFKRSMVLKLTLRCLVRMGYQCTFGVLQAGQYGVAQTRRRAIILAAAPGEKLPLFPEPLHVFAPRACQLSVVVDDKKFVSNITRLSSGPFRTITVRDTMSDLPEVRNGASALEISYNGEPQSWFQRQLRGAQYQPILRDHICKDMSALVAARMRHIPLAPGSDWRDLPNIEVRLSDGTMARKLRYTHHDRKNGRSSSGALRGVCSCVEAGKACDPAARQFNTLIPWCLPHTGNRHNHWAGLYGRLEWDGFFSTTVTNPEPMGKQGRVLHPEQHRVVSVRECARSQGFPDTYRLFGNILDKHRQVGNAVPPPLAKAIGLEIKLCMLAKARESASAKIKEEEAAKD
Chain of G protein-coupled receptor kinase 5 (P34947 whole entry): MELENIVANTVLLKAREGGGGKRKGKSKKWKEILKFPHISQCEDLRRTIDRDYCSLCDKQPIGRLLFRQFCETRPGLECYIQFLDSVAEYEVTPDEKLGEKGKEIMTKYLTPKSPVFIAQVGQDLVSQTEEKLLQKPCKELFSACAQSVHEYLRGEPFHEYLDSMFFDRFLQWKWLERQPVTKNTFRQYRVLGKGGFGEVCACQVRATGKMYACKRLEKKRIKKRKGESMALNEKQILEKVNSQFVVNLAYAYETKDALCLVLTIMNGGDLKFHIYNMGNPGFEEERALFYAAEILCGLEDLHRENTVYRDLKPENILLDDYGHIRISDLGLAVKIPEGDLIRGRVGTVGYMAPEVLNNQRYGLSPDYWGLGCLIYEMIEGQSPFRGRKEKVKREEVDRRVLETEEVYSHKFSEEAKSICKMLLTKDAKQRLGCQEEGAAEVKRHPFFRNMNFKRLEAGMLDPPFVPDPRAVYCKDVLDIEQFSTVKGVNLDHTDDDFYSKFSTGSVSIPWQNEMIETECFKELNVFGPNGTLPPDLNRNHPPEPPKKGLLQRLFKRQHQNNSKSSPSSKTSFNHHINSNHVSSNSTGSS
Chain of Mitochondrial peptide methionine sulfoxide reductase (P54149 whole entry): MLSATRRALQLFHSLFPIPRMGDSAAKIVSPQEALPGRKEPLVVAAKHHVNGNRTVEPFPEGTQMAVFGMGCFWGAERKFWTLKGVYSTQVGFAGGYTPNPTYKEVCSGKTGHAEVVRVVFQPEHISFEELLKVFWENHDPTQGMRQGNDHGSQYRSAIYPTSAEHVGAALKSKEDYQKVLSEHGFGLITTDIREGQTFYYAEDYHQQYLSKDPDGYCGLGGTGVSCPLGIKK

SMILES: O=c1[nH]c(=S)[nH]c2c1C(c1ccc(Br)cc1)c1c([nH]c(=S)[nH]c1=O)O2
IC50 [1]: 0.0169 µM (active) | IC50 [2]: 29.2 µM (inactive) | IC50 [3]: 14.5 µM (active) | IC50 [4]: 2.96 µM (active) | EC50 [5]: 4.86 µM (inconclusive) | IC50 [6]: > 66.6 µM (inactive) | AC50 [7]: 281 µM (active) | IC50 [8]: 20.8 µM (active) | IC50 [9]: 10.3 µM (active) | EC50 [10]: 4.53 µM (active) | IC50 [11]: 73.7 µM (active) | IC50 [12]: 21.4 µM (active)

SMILES: CCSC1=C(C#N)C(c2ccccc2Cl)C(C(=O)c2cccs2)C(O)(C(F)(F)F)N1 (stereo not drawn)
IC50 [13]: 0.878 µM (active) | IC50 [14]: 0.174 µM (active) | IC50 [15]: 33.9 µM (inactive) | IC50 [16]: > 50 µM (inactive) | IC50 [17]: 20 µM (inactive) | IC50 [18]: > 66.2 µM (inactive)

SMILES: CCOC(=O)C1=C(COC(=O)/C=C/c2cccc(OC)c2)NC(=O)NC1C (stereo not drawn)
IC50 [13]: 15.3 µM (inactive) | IC50 [14]: 8.33 µM (active) | IC50 [15]: > 49.8 µM (inactive) | IC50 [16]: > 50 µM (inactive) | IC50 [17]: > 88.8 µM (inactive) | IC50 [18]: > 66.2 µM (inactive)

IC50 [19]: > 99 µM (inactive)
SMILES: CCOC(=O)C(NC(=O)CC(C)C)(Nc1sc2c(c1C(N)=O)CCCC2)C(F)(F)F (stereo not drawn)

SMILES: COC(=O)c1sc(N)c(C(=O)OC)c1COC(=O)CNS(=O)(=O)c1ccc(C)c(C)c1
IC50 [20]: > 64.6 µM (inactive) | IC50 [21]: > 64.6 µM (inactive)

Ki [22]: 5.01 µM (active)
SMILES: CC(C)CC(NC(=O)c1cccc(-n2nc(C(C)(C)C)cc2NC(=O)Nc2cccc3ccccc23)c1)C(N)=O (stereo not drawn)

Ki [23]: 0.0501 µM (active) | Ki [24]: 0.398 µM (active)
SMILES: Cc1cccc(NC(=O)Nc2ccc(-c3csc4c(-c5ccc(NC(=O)CCCN(C)C)cc5)cnc(N)c34)cc2)c1

IC50 [25]: 155 µM (inactive)
SMILES: C/C(=N\Nc1ccc(C(F)(F)F)cc1[N+](=O)[O-])C1CC1

Ki [26]: > 3.98 µM (inactive) | Ki [27]: > 2 µM (inactive)
SMILES: COc1cc2c(Nc3ccc(Br)cc3F)ncnc2cc1OCC1CCN(C)CC1 [VANDETANIB]
